# Test results reported in US20040097435A1, “Method of treating parasitic infection” (Pfizer Inc, priority 2000, published 2004).
# Read-outs that look alike come from different tables or passages of the source.
# Tests used:
# [1] = test system: ectoparasites such as fleas; conditions: companion animals; cited from earlier work
# intestinal nematode = conditions: administered to pregnant bitch from pregnancy past parturition; Veterinary Parasitology, 1999, 85, 305; cited from earlier work
# Toxocara canis [2] = conditions: 6 mg/kg topical to dam
# Description: (§1) Twenty-one adult females were allocated randomly to one of two treatments: placebo (negative control, 11 animals), or selamectin (10 animals). The selamectin, was formulated as: […]
# (§2) Doses providing 6 mg/kg of selamectin were administered topically approximately 40 days and 10 days pre-partum and 10 days and 38 days post-partum in a single spot on the skin of each female's back at the base of the neck in front of the shoulder blades. Treatments were not administered to puppies. Post-partum day 1 was defined individually for each adult female as the day following the day of delivery of the last puppy in the litter.
# (§3) Following observations of signs of pro-oestrus, the females were moved into randomly allocated carpeted pens in a building where the environment was suitable for the rapid completion of the flea reproductive cycle.
# On post-partum day 45, each puppy was euthanised, its gastro-intestinal tract was removed and intestinal larval (L4) and adult T. canis were enumerated.
# [3] = 6 mg/kg topical at monthly intervals during pregnancy and post-partum, female dogs
# [4] = 6 mg/kg topical at monthly intervals during pregnancy and post partum, female cats
# Ctenocephalides felis [5] = test system: Ctenocephalides felis
# Description: (§4) Thirty-eight adult females were allocated randomly to one of two treatments: placebo (negative control, 19 animals), or selamectin (19 animals). The selamectin, was formulated as: […]
# (§5) Doses providing 6 mg/kg of selamectin were administered topically in a single spot on the skin of each female's back at the base of the neck in front of the shoulder blades on days 0 and 30 to individually-housed females and to females group-housed for mating on days 0, 30, 60 and 90 as required until kittening. All females were treated on post partum days 10 and 38. Treatments were not administered to kittens. […]. Study day 0 was defined individually for each adult female as the day on which the first treatment with either placebo or selamectin was administered and post partum day 1 was defined as the day following the day of delivery of the last kitten in the litter.
# Toxocara cati = conditions: post partum day 49
# Description: as §4, §5
# Each adult female was inoculated once with approximately 1000 embryonated T. cati ova, per os, between 150 and 31 days prior to commencing the study and again between 5 and 21 days before kittening.
# On post partum day 49, each kitten was euthanased, its gastrointestinal tract was removed and intestinal larvae (L4) and adult T. cati were enumerated.
# Toxocara canis [6] = conditions: 6 mg/kg topical to dam; for geometric mean faecal egg count: puppies born to treated females
# Description: as §1, §2, §3
# (§6) Each adult female was infested with 100 viable unfed adult C. felis approximately 60 days and 46 days pre-partum, and with 10 viable unfed adult fleas approximately 39, 33, 26, 19, 14 and 5 days pre-partum; an additional infestation was performed 7 days later if the female had not whelped. Each lactating female was also infested with 10 fleas on post-partum days 6, 15, 21, 28, 34 and 42. Comb counts of the number of viable adult fleas present on each female were made on approximately pre-partum days 41 and 11, and on postpartum days 9, 37 and 45. Comb counts of the fleas present on each puppy were performed on post-partum days 15, 24, 34, 42 and 45. After counting, up to 50 fleas per pregnant/lactating female and up to five fleas per puppy were replaced on each dog. For welfare reasons, if any dog was scratching or grooming excessively, additional unscheduled comb counts were performed on that dog and if necessary, the carpet was partially or entirely replaced to reduce the environmental flea challenge. Faecal egg counts for T. canis were performed for pregnant/lactating females on approximately pre-partum day 2 and on post-partum days 9, 17, 24 and 45, and for puppies on post-partum days 24 and 34.
# Ctenocephalides felis [7] = test system: Ctenocephalides felis; remark: listed apart in the source
# Description: as §1, §2, §3, §6
# [8] = kittens at necropsy, 6 mg/kg topical to dam
compound,measurement,setting,value
ivermectin,activity against ectoparasites such as fleas,[1],poor activity
same,prevention of intestinal nematode infections in pups,intestinal nematode,can prevent intestinal nematode infections in pups
CO[C@H]1C[C@H](O[C@H]2[C@H](C)O[C@@H](O[C@@H]3/C(C)=C/C[C@@H]4C[C@@H](C[C@]5(C=C[C@H](C)[C@@H](C6CCCCC6)O5)O4)OC(=O)[C@@H]4C=C(C)[C@@H](O)[C@H]5OC/C(=C\C=C\[C@@H]3C)[C@]54O)C[C@@H]2OC)O[C@@H](C)[C@@H]1O [doramectin],activity against ectoparasites such as fleas,[1],poor activity
CO[C@H]1C[C@H](O[C@@H]2/C(C)=C/C[C@@H]3C[C@@H](C[C@]4(CC[C@H](C)[C@@H](C5CCCCC5)O4)O3)OC(=O)[C@@H]3C=C(C)/C(=N/O)[C@H]4OC/C(=C\C=C\[C@@H]2C)[C@]43O)O[C@@H](C)[C@@H]1O [selamectin],reduction in mean adult T. canis count compared with puppies born to placebo-treated females,Toxocara canis [2]; necropsy post partum day 45,98.2%
same,geometric mean adult T. canis worm count,"Toxocara canis [2]; puppies at necropsy, post-partum day 45",0.1
same,safety of treatment,[3],safe
same,safety of treatment,[4],safe
same,females or their kittens requiring additional flea control measures,"Ctenocephalides felis [5]; after the first treatment on day 0, to maintain flea burdens within acceptable limits",none
same,reduction in mean flea comb counts compared with kittens born to placebo-treated females,"Ctenocephalides felis [5]; kittens, all counting days (post partum days 15, 24, 34, 42 and 49)",100%
same,geometric mean flea comb count,"Ctenocephalides felis [5]; kittens, all counting days (post partum days 15, 24, 34, 42 and 49), 6 mg/kg topical to dam",zero
same,geometric mean L4 T. cati count,Toxocara cati; [8],0.0
same,geometric mean adult T. cati count,Toxocara cati; [8],0.0
same,reduction in mean adult T. cati count compared with kittens born to placebo-treated females,Toxocara cati,100%
same,reduction in mean fourth stage larvae (L4) T. cati count compared with kittens born to placebo-treated females,Toxocara cati,100%
same,reduction in mean faecal egg count compared with puppies born to placebo-treated females,Toxocara canis [6]; post-partum day 24,96.8%
same,reduction in mean faecal egg count compared with puppies born to placebo-treated females,Toxocara canis [6]; post-partum day 34,96.1%
same,geometric mean faecal egg count,Toxocara canis [6]; post-partum day 24,0.8 epg
same,geometric mean faecal egg count,Toxocara canis [6]; post-partum day 34,2.1 epg
same,reduction in mean flea comb counts compared with puppies born to placebo-treated females,"Ctenocephalides felis [7]; puppies, all counting days (post-partum days 15, 24, 34, 42 and 45)",100.0%
same,geometric mean flea comb count,"Ctenocephalides felis [7]; puppies, all counting days (post-partum days 15, 24, 34, 42 and 45), 6 mg/kg topical to dam",0
same,females or their puppies requiring additional flea control measures,Ctenocephalides felis [7]; to maintain flea burdens within acceptable limits,None
